Entries after “also recorded” stand apart in the source; their conditions may differ. Marks after values point to notes of the source that are not given here.
Assays:
[1] = tested on: ouabain induced arrhythmia (VT, VF, mortality); assay: Ouabain induced arrhythmia model in guinea pig; format: in vivo; details: for actual incidence of mortality (value in parenthesis): 60 min; for actual incidence of mortality (value in parenthesis) / actual incidence of VF (value in parenthesis) / actual incidence of VT (value in parenthesis): number of animals of the group; for % INCIDENCE OF MORTALITY: mortality at 60 min; for deaths due to conduction block (60 min), actual incidence (value in parenthesis) / deaths due to tachyarrhythmia (60 min), actual incidence (value in parenthesis): number of animals; for % INCIDENCE OF VF / % INCIDENCE OF VT: ouabain 240 μg/kg in three doses, observed one hour; for DEATHS DUE TO CONDUCTION BLOCK (60 MIN) Percentage / DEATHS DUE TO TACHYARRHYTHMIA (60 MIN) Percentage: percentage deaths out of total mortality
Text: Method: Guinea pigs (Dunken Hartley) of either sex weighing between 400 and 500 g were used for the study. The animals were anesthetized with urethane (1.25 g/kg. i.p.). The left common carotid artery and left jugular vein were cannulated for arterial blood pressure monitoring and intravenous access respectively. Lead II electrocardiogram, arterial blood pressure, mean arterial blood pressure (MABP), heart rate were monitored throughout the experiment.
After initial surgical preparations and allowing 30 minutes for the animal to stabilise the first dose of ouabain (90 μg/kg) was administered over a period of one minute. After the interval of thirty minutes, second dose of ouabain (60 μg/kg) was administered over a period of one minute. One minute after this dose, 0.5 ml saline (in control experiments) was administered over a period of one minute. After an interval of 10 minutes a third dose of ouabain (90 μg/kg) was administered over a period of one minute. […] The test compounds were administered to animals in test group in place of saline to evaluate their antiarrhythmic potential. From the ECG recordings, the incidence of VT, VF and mortality were recorded. The doses of ratios of sotalol isomers studied were 0.1, 0.5 and 2.5 mg/kg.
Interpretation of ECG recordings: Minor disturbance in rhythm was not considered while evaluating ventricular tachyarrhythmias. A run of more than 3 ventricular ectopic beats having wide QRS complexes associated with partial haemodynamic collapse was considered as Ventricular Tachycardia (VT). Total morphological irregularity of repetitive complexes for at least six cycles associated with complete haemodynamic collapse was considered as Ventricular Fibrillation (VF). Successful arrhythmia protection was defined as no occurrence of VT and VF from the injection of saline/test drug till the end of the experiment.
Statistics: Chi square test with continuity correction at 95% confidence limit was applied to find out the statistical significance between control and test groups for incidence of VT, VF and mortality. Whenever, any of the value in a cell was less than 5, Fischer's exact probability test was used.
Results: Different ratios of sotalol in the dose range from 0.02 mg/kg to 12.5 mg/kg were studied in individual groups of animals. In all 18 groups were studied and at least 6 animals were used in each group. In control animals ouabain 240 μg/kg in three divided doses induced reproducible ventricular tachyarrhythmias in guinea pigs. It was observed that ventricular arrhythmias appeared after the administration of the third dose. Guinea pigs which responded early i.e. before or within 1 min. of administration of the second dose, were considered early responders and were not included in the study. […] In the study, control experiments were carried out randomly interspersed in test groups. Among the 42 control animals the incidence of VT was 81%, incidence of VF was 71.4% and the incidence of mortality at 60 minutes was 61.9%.

[2] = tested on: beta adrenergic blockade, isolated right auricle preparation of rabbit; assay: Beta blocking potency (pA2 against isoprenaline) in isolated rabbit right auricle; details: isoprenaline chronotropic response, Schild's plot
Experimental: Estimation of the beta blockade of various ratios of d- and l- isomers of sotalol was carried out in the isolated right auricle preparation of rabbit. The spontaneously beating right atrium was dissected and mounted in a 20 ml tissue bath. The resting tension on the atria was set at 1 g. The contractions were recorded using a force displacement transducer. The spontaneous contractions of the right atria were recorded isometrically and the heart rate was obtained as a derived parameter using a ratemeter that gave the output in beats per minute. Six different ratios of d and l isomers were investigated (1:1, 2:1, 3:1, 4:1, 5:1 and 1:0). Dose-response-curves (DRC) for isoprenaline in the isolated atria, using the chronotropic response were determined by cumulative addition of isoprenaline. The pA2 values of each of the ratios were estimated using the classical Schild's plot (Schild, 1957) and the values are shown in Table 1.

[3] = guinea pig, in vivo, listed as 2.5:1 ratio (d:l)

## CC(C)NCC(O)c1ccc(NS(C)(=O)=O)cc1 (centres unmarked) [2.5:1 RATIO, N-[4-[1-hydroxy-2-[(1-methylethyl)amino]ethyl]phenyl] methane sulfonamide]
[1]; 0.5 mg/kg
  mortality compared to 2:1 ratio at the same dose: lower
  protection against VF: some protection, it was not complete
  actual incidence of mortality (value in parenthesis): (2)
  % INCIDENCE OF MORTALITY: 33.3%
  deaths due to conduction block (60 min), actual incidence (value in parenthesis): (2)
  deaths due to tachyarrhythmia (60 min), actual incidence (value in parenthesis): (0)
  actual incidence of VF (value in parenthesis): (2)
  actual incidence of VT (value in parenthesis): (2)*
  % INCIDENCE OF VF: 33.3%
  % INCIDENCE OF VT: 33.3%
  DEATHS DUE TO CONDUCTION BLOCK (60 MIN) Percentage: 100.0%
  DEATHS DUE TO TACHYARRHYTHMIA (60 MIN) Percentage: 00.0%
[1]; 0.5 mg/kg, listed as 2.5:1 ratio (d:l)
  protection against ouabain induced VT: protection was not complete
[1]; 2.5 mg/kg
  protection against mortality: protected significantly
  protection from deaths due to tachyarrhythmias: completely protected
  % INCIDENCE OF MORTALITY: 16.6%
  deaths due to conduction block (60 min), actual incidence (value in parenthesis): (1)
  deaths due to tachyarrhythmia (60 min), actual incidence (value in parenthesis): (0)
  actual incidence of VF (value in parenthesis): (0)*
  actual incidence of VT (value in parenthesis): (0)*
  % INCIDENCE OF VF: 0.0%
  % INCIDENCE OF VT: 0.0%
  DEATHS DUE TO CONDUCTION BLOCK (60 MIN) Percentage: 100.0%
  DEATHS DUE TO TACHYARRHYTHMIA (60 MIN) Percentage: 00.0%
[1]; 2.5 mg/kg, listed as 2.5:1
  protection against arrhythmias (VT and VF): completely protects; also recorded: complete protection
  % INCIDENCE OF MORTALITY: 16.6%
[1]; [3]
  dose at which complete protection against VT was observed: 2.5 mg/kg
  dose that completely protected against VF: 2.5 mg/kg
[1]; no dose stated
  cause of deaths: due to conduction abnormalities
  mortality compared with control groups: less than that of control groups

## CC(C)NCC(O)c1ccc(NS(C)(=O)=O)cc1 (racemic) [dl-SOTALOL, N-[4-[1-hydroxy-2-[(1-methylethyl)amino]ethyl]phenyl] methane sulfonamide]
[1]; 0.02 mg/kg
  % INCIDENCE OF MORTALITY: 16.6%
  deaths due to conduction block (60 min), actual incidence (value in parenthesis): (0)
  deaths due to tachyarrhythmia (60 min), actual incidence (value in parenthesis): (1)
  actual incidence of VF (value in parenthesis): (5)
  actual incidence of VT (value in parenthesis): (5)
  % INCIDENCE OF VF: 83.3%
  % INCIDENCE OF VT: 83.3%
  DEATHS DUE TO CONDUCTION BLOCK (60 MIN) Percentage: 00.0%
  DEATHS DUE TO TACHYARRHYTHMIA (60 MIN) Percentage: 100.0%
[1]; 0.1 mg/kg
  actual incidence of mortality (value in parenthesis): (2)
  % INCIDENCE OF MORTALITY: 33.3%
  deaths due to conduction block (60 min), actual incidence (value in parenthesis): (1)
  deaths due to tachyarrhythmia (60 min), actual incidence (value in parenthesis): (1)
  actual incidence of VF (value in parenthesis): (2)
  actual incidence of VT (value in parenthesis): (2)*
  % INCIDENCE OF VF: 33.3%
  % INCIDENCE OF VT: 33.3%
  DEATHS DUE TO CONDUCTION BLOCK (60 MIN) Percentage: 50.0%
  DEATHS DUE TO TACHYARRHYTHMIA (60 MIN) Percentage: 50.0%
[1]; 0.5 mg/kg
  actual incidence of mortality (value in parenthesis): (3)
  % INCIDENCE OF MORTALITY: 50.0%
  deaths due to conduction block (60 min), actual incidence (value in parenthesis): (3)
  deaths due to tachyarrhythmia (60 min), actual incidence (value in parenthesis): (0)
  actual incidence of VF (value in parenthesis): (2)
  actual incidence of VT (value in parenthesis): (2)*
  % INCIDENCE OF VF: 33.3%
  % INCIDENCE OF VT: 33.3%
  DEATHS DUE TO CONDUCTION BLOCK (60 MIN) Percentage: 100.0%
  DEATHS DUE TO TACHYARRHYTHMIA (60 MIN) Percentage: 00.0%
[1]; 2.5 mg/kg
  protection against mortality: no protection
  protection from deaths due to tachyarrhythmias: completely protected
  actual incidence of mortality (value in parenthesis): (6)
  % INCIDENCE OF MORTALITY: 60.0%
  deaths due to conduction block (60 min), actual incidence (value in parenthesis): (6)
  deaths due to tachyarrhythmia (60 min), actual incidence (value in parenthesis): (0)*
  actual incidence of VF (value in parenthesis): (0)*
  actual incidence of VT (value in parenthesis): (0)*
  % INCIDENCE OF VF: 00.0%
  % INCIDENCE OF VT: 00.0%
  DEATHS DUE TO CONDUCTION BLOCK (60 MIN) Percentage: 100.0%
  DEATHS DUE TO TACHYARRHYTHMIA (60 MIN) Percentage: 00.0%
[1]; 2.5 mg/kg, listed as d:l sotalol (ratio 1:1)
  % INCIDENCE OF MORTALITY: 60%
[1]; 0.1, 0.5 and 2.5 mg/kg dose
  protection against ouabain induced VT: able to protect
[1]; 0.1 and 0.5 mg/kg doses
  protection against VF: some protection
[1]; as the dose was increased
  cause of deaths: entirely due to conduction abnormalities
[1]; guinea pig, in vivo
  dose at which complete protection against VT was observed: 2.5 mg/kg
  dose that completely protected against VF: 2.5 mg/kg
  minimum protective dose against ouabain induced VT: 0.1 mg/kg
[1]; lower doses
  cause of deaths: due to tachyarrhythmias
  protection against mortality: reduced mortality
[1]; no dose stated
  deaths due to conduction block increased: increased
[2]
  pA2 Mean: 6.48

## CC(C)NCC(O)c1ccc(NS(C)(=O)=O)cc1 (stereo not drawn) [d-SOTALOL, N-[4-[1-hydroxy-2-[(1-methylethyl)amino]ethyl]phenyl] methane sulfonamide]
[1]; 0.5 mg/kg
  actual incidence of mortality (value in parenthesis): (5)
  % INCIDENCE OF MORTALITY: 50.0%
  deaths due to conduction block (60 min), actual incidence (value in parenthesis): (1)
  deaths due to tachyarrhythmia (60 min), actual incidence (value in parenthesis): (4)
  actual incidence of VF (value in parenthesis): (7)
  actual incidence of VT (value in parenthesis): (7)
  % INCIDENCE OF VF: 70.0%
  % INCIDENCE OF VT: 70.0%
  DEATHS DUE TO CONDUCTION BLOCK (60 MIN) Percentage: 20.0%
  DEATHS DUE TO TACHYARRHYTHMIA (60 MIN) Percentage: 80.0%
[1]; 2.5 mg/kg
  actual incidence of mortality (value in parenthesis): (6)
  % INCIDENCE OF MORTALITY: 66.6%
  deaths due to conduction block (60 min), actual incidence (value in parenthesis): (3)
  deaths due to tachyarrhythmia (60 min), actual incidence (value in parenthesis): (3)
  actual incidence of VF (value in parenthesis): (6)
  actual incidence of VT (value in parenthesis): (7)
  % INCIDENCE OF VF: 66.6%
  % INCIDENCE OF VT: 77.7%
  DEATHS DUE TO CONDUCTION BLOCK (60 MIN) Percentage: 50.0%
  DEATHS DUE TO TACHYARRHYTHMIA (60 MIN) Percentage: 50.0%
[1]; 12.5 mg/kg
  actual incidence of mortality (value in parenthesis): (6)
  % INCIDENCE OF MORTALITY: 100.0%
  deaths due to conduction block (60 min), actual incidence (value in parenthesis): (3)
  deaths due to tachyarrhythmia (60 min), actual incidence (value in parenthesis): (3)
  actual incidence of VF (value in parenthesis): (3)
  actual incidence of VT (value in parenthesis): (3)
  % INCIDENCE OF VF: 50.0%
  % INCIDENCE OF VT: 50.0%
  DEATHS DUE TO CONDUCTION BLOCK (60 MIN) Percentage: 50.0%
  DEATHS DUE TO TACHYARRHYTHMIA (60 MIN) Percentage: 50.0%
[1]; 12.5 mg/kg, listed as d-Sotalol
  % INCIDENCE OF MORTALITY: 100%
[1]; doses 2.5 mg/kg and 12.5 mg/kg
  cause of deaths: equally due to conduction abnormality as well as tachyarrhythmias
[1]; no dose stated
  protection against ouabain induced VF: ineffective
  protection against ouabain induced VT: ineffective
[2]; listed as 1:0
  pA2 Mean: 5.44
[2]; listed as pure d-isomer of sotalol
  pA2 Mean: 5.44

## CC(C)NCC(O)c1ccc(NS(C)(=O)=O)cc1 (centres unmarked) [5:1, N-[4-[1-hydroxy-2-[(1-methylethyl)amino]ethyl]phenyl] methane sulfonamide]
[2]
  pA2 Mean: 5.85
